According to patent US12454529B2, “Piperazine cyclic ureas” (SIRONAX LTD., priority 2020, dated 2025):

Test system: HT-29 cells
Experiment: HT-29 cell necrosis/necroptosis inhibition (TNF-α + SMAC mimetic + zVAD-FMK; CellTiter-Glo cell viability)
Assay type: cell-based
Details: Homo sapiens; HT-29 cells, TNF-α 10 ng/ml + SMAC mimetic 6 μM + zVAD-FMK 10 μM, 20 hours; geometric mean, 10 points in duplicate; read-out: EC50 (Cell activity; Necrosis/Necroptosis Inhibitory Activity, Compounds 143-323)
Outline: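 HT-29 cells (~5,000/well) were switched to FBS-free McCOY's 5A holding TNF-α (10 ng/ml), SMAC mimetic (6 μM) and zVAD-FMK (10 μM), then dosed with a 10-point 1:3 series for 20 h at 37 °C. CellTiter-Glo luminescence gave viability; geometric mean EC50 from duplicates.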

| Compound | EC50 |
| --- | --- |
| Cc1cnn(C)c1-c1ncc(F)c(N2CCN(C(=O)N3N=CC[C@H]3c3cc(F)cc(C#N)c3)CC2)n1 [Compound 268, (S)-3-(1-(4-(2-(1,4-dimethyl-1H-pyrazol-5-yl)-5-fluoropyrimidin-4-yl)piperazine-1-carbonyl)-4,5-dihydro-1H-pyrazol-5-yl)-5-fluorobenzonitrile] | 0.0001 to 0.1 µM |
| Cc1cnn(C)c1-c1cc(N2CCN(C(=O)N3N=CC[C@H]3c3cc(F)cc(C#N)c3)CC2)c(F)cn1 [Compound 269, (S)-3-(1-(4-(2-(1,4-dimethyl-1H-pyrazol-5-yl)-5-fluoropyridin-4-yl)piperazine-1-carbonyl)-4,5-dihydro-1H-pyrazol-5-yl)-5-fluorobenzonitrile] | 0.0001 to 0.1 µM |
| Cc1ncc(C2CC=NN2C(=O)N2CCN(c3nc(-c4c(C)cnn4C)ccc3F)CC2)s1 (stereo not drawn) [Compound 270, (4-(6-(1,4-dimethyl-1H-pyrazol-5-yl)-3-fluoropyridin-2-yl)piperazin-1-yl)(5-(2-methylthiazol-5-yl)-4,5-dihydro-1H-pyrazol-1-yl)methanone] | 0.0001 to 0.1 µM |
| Cc1nc(C)n(-c2cc(N3CCN(C(=O)N4N=CC[C@H]4c4cc(F)cc(F)c4)CC3)c(F)cn2)n1 [Compound 271, (S)-(5-(3,5-difluorophenyl)-4,5-dihydro-1H-pyrazol-1-yl)(4-(2-(3,5-dimethyl-1H-1,2,4-triazol-1-yl)-5-fluoropyridin-4-yl)piperazin-1-yl)methanone] | 0.0001 to 0.1 µM |
| Cc1nc(C)n(-c2cc(N3CCN(C(=O)N4N=CC[C@H]4c4cc(F)cc(C#N)c4)CC3)c(F)cn2)n1 [Compound 272, (S)-3-(1-(4-(2-(3,5-dimethyl-1H-1,2,4-triazol-1-yl)-5-fluoropyridin-4-yl)piperazine-1-carbonyl)-4,5-dihydro-1H-pyrazol-5-yl)-5-fluorobenzonitrile] | 0.0001 to 0.1 µM |
| Cc1nn(-c2ccnc(N3CCN(C(=O)N4N=CC[C@H]4c4cc(F)cc(C#N)c4)CC3)n2)c(C)c1Br [Compound 273, (S)-3-(1-(4-(4-(4-bromo-3,5-dimethyl-1H-pyrazol-1-yl)pyrimidinyl)piperazine-1-carbonyl)-4,5-dihydro-1H-pyrazol-5-yl)-5-fluorobenzonitrile] | 0.0001 to 0.1 µM |
| Cc1nn(-c2ccnc(N3CCN(C(=O)N4N=CC[C@H]4c4cc(F)cc(C#N)c4)CC3)n2)c(C)c1C#N [Compound 274, (S)-1-(2-(4-(5-(3-cyano-5-fluorophenyl)-4,5-dihydro-1H-pyrazole-1-carbonyl)piperazin-1-yl)pyrimidin-4-yl)-3,5-dimethyl-1H-pyrazole-4-carbonitrile] | 0.0001 to 0.1 µM |
| Cc1nn(-c2nc(N3CCN(C(=O)N4N=CC[C@H]4c4cc(F)cc(C#N)c4)CC3)ncc2F)c(C)c1C#N [Compound 275, (S)-1-(2-(4-(5-(3-cyano-5-fluorophenyl)-4,5-dihydro-1H-pyrazole-1-carbonyl)piperazin-1-yl)-5-fluoropyrimidin-4-yl)-3,5-dimethyl-1H-pyrazole-4-carbonitrile] | 0.0001 to 0.1 µM |
| Cc1nn(-c2ccnc(N3CCN(C(=O)N4N=CC[C@H]4c4cc(F)cc(C#N)c4)CC3)n2)c(C)c1C(N)=O [Compound 276, (S)-1-(2-(4-(5-(3-cyano-5-fluorophenyl)-4,5-dihydro-1H-pyrazole-1-carbonyl)piperazin-1-yl)pyrimidin-4-yl)-3,5-dimethyl-1H-pyrazole-4-carboxamide] | 0.0001 to 0.1 µM |
| Cc1nn(-c2nc(N3CCN(C(=O)N4N=CC[C@H]4c4cc(F)cc(C#N)c4)CC3)ncc2F)c(C)c1C(N)=O [Compound 277, (S)-1-(2-(4-(5-(3-cyano-5-fluorophenyl)-4,5-dihydro-1H-pyrazole-1-carbonyl)piperazin-1-yl)-5-fluoropyrimidin-4-yl)-3,5-dimethyl-1H-pyrazole carboxamide] | 0.0001 to 0.1 µM |
| Cc1nn(-c2cc(N3CCN(C(=O)N4N=CC[C@H]4c4cc(F)cc(C#N)c4)CC3)ncn2)c(C)c1Br [Compound 278, (S)-3-(1-(4-(6-(4-bromo-3,5-dimethyl-1H-pyrazol-1-yl)pyrimidin-4-yl)piperazine-1-carbonyl)-4,5-dihydro-1H-pyrazol-5-yl)-5-fluorobenzonitrile] | 0.0001 to 0.1 µM |
| Cc1nn(-c2cc(N3CCN(C(=O)N4N=CC[C@H]4c4cc(F)cc(C#N)c4)CC3)ncn2)c(C)c1C#N [Compound 279, (S)-1-(6-(4-(5-(3-cyano-5-fluorophenyl)-4,5-dihydro-1H-pyrazole-1-carbonyl)piperazin-1-yl)pyrimidin-4-yl)-3,5-dimethyl-1H-pyrazole-4-carbonitrile] | 0.0001 to 0.1 µM |
| Cc1nn(-c2cc(N3CCN(C(=O)N4N=CC[C@H]4c4cc(F)cc(F)c4)CC3)ncn2)c(C)c1C#N [Compound 280, (S)-1-(6-(4-(5-(3,5-difluorophenyl)-4,5-dihydro-1H-pyrazole-1-carbonyl)piperazin-1-yl)pyrimidin-4-yl)-3,5-dimethyl-1H-pyrazole-4-carbonitrile] | 0.0001 to 0.1 µM |
| Cc1nn(-c2cc(N3CCN(C(=O)N4N=CC[C@H]4c4cc(F)cc(F)c4)CC3)ncn2)c(C)c1C(N)=O [Compound 281, (S)-1-(6-(4-(5-(3,5-difluorophenyl)-4,5-dihydro-1H-pyrazole-1-carbonyl)piperazin-1-yl)pyrimidin-4-yl)-3,5-dimethyl-1H-pyrazole-4-carboxamide] | 0.0001 to 0.1 µM |
| Cc1nn(-c2cc(N3CCN(C(=O)N4N=CC[C@H]4c4cc(F)cc(C#N)c4)CC3)ncn2)c(C)c1C(N)=O [Compound 282, (S)-1-(6-(4-(5-(3-cyano-5-fluorophenyl)-4,5-dihydro-1H-pyrazole-1-carbonyl)piperazin-1-yl)pyrimidin-4-yl)-3,5-dimethyl-1H-pyrazole-4-carboxamide] | 0.0001 to 0.1 µM |
| Cc1nn(-c2ccnc(N3CCN(C(=O)N4N=CC[C@H]4c4cncc(F)c4)CC3)n2)c(C)c1C#N [Compound 283, (S)-1-(2-(4-(5-(5-fluoropyridin-3-yl)-4,5-dihydro-1H-pyrazole-1-carbonyl)piperazin-1-yl)pyrimidin-4-yl)-3,5-dimethyl-1H-pyrazole-4-carbonitrile] | 0.0001 to 0.1 µM |
| Cc1nn(-c2cc(N3CCN(C(=O)N4N=CC[C@H]4c4cncc(F)c4)CC3)ncn2)c(C)c1C(N)=O [Compound 284, (S)-1-(6-(4-(5-(5-fluoropyridin-3-yl)-4,5-dihydro-1H-pyrazole-1-carbonyl)piperazin-1-yl)pyrimidin-4-yl)-3,5-dimethyl-1H-pyrazole-4-carboxamide] | 0.1 to 1 µM |
| Cc1nn(-c2ccnc(N3CCN(C(=O)N4N=CC[C@H]4c4cncc(F)c4)CC3)n2)c(C)c1C(N)=O [Compound 285, (S)-1-(2-(4-(5-(5-fluoropyridin-3-yl)-4,5-dihydro-1H-pyrazole-1-carbonyl)piperazin-1-yl)pyrimidin-4-yl)-3,5-dimethyl-1H-pyrazole-4-carboxamide] | 0.0001 to 0.1 µM |
| Cc1nn(-c2cc(N3CCN(C(=O)N4N=CC[C@H]4c4cncc(F)c4)CC3)ncn2)c(C)c1C#N [Compound 286, (S)-1-(6-(4-(5-(5-fluoropyridin-3-yl)-4,5-dihydro-1H-pyrazole-1-carbonyl)piperazin-1-yl)pyrimidin-4-yl)-3,5-dimethyl-1H-pyrazole-4-carbonitrile] | 0.0001 to 0.1 µM |
| Cc1nn(-c2ccnc(N3CCN(C(=O)N4N=CC[C@H]4c4cncc(F)c4)CC3)n2)c(C)c1Cl [Compound 287, (S)-(4-(4-(4-chloro-3,5-dimethyl-1H-pyrazol-1-yl)pyrimidin-2-yl)piperazin-1-yl)(5-(5-fluoropyridin-3-yl)-4,5-dihydro-1H-pyrazol-1-yl)methanone] | 0.0001 to 0.1 µM |
| Cc1nn(-c2ccnc(N3CCN(C(=O)N4N=CC[C@H]4c4cc(F)cc(C#N)c4)CC3)n2)c(C)c1Cl [Compound 288, (S)-3-(1-(4-(4-(4-chloro-3,5-dimethyl-1H-pyrazol-1-yl)pyrimidin-2-yl)piperazine-1-carbonyl)-4,5-dihydro-1H-pyrazol-5-yl)-5-fluorobenzonitrile] | 0.0001 to 0.1 µM |
| Cc1nn(-c2cc(N3CCN(C(=O)N4N=CC[C@H]4c4cc(F)cc(C#N)c4)CC3)ncn2)c(C)c1Cl [Compound 289, (S)-3-(1-(4-(6-(4-chloro-3,5-dimethyl-1H-pyrazol-1-yl)pyrimidin-4-yl)piperazine-1-carbonyl)-4,5-dihydro-1H-pyrazol-5-yl)-5-fluorobenzonitrile] | 0.0001 to 0.1 µM |
| Cc1nn(-c2cc(N3CCN(C(=O)N4N=CC[C@H]4c4cncc(F)c4)CC3)ncn2)c(C)c1Cl [Compound 290, (S)-(4-(6-(4-chloro-3,5-dimethyl-1H-pyrazol-1-yl)pyrimidin-4-yl)piperazin-1-yl)(5-(5-fluoropyridin-3-yl)-4,5-dihydro-1H-pyrazol-1-yl)methanone] | 0.0001 to 0.1 µM |
| Cc1nc(C)n(-c2nc(N3CCN(C(=O)N4N=CCC4c4cnc(C)s4)CC3)ncc2F)n1 (stereo not drawn) [Compound 291, (4-(4-(3,5-dimethyl-1H-1,2,4-triazol-1-yl)-5-fluoropyrimidin-2-yl)piperazin-1-yl)(5-(2-methylthiazol-5-yl)-4,5-dihydro-1H-pyrazol-1-yl)methanone] | 0.0001 to 0.1 µM |
| Cc1ncc(C2CC=NN2C(=O)N2CCN(c3cc(-c4c(C)cnn4C)ncc3F)CC2)s1 (stereo not drawn) [Compound 292, (4-(2-(1,4-dimethyl-1H-pyrazol-5-yl)-5-fluoropyridin-4-yl)piperazin-1-yl)(5-(2-methylthiazol-5-yl)-4,5-dihydro-1H-pyrazol-1-yl)methanone] | 0.1 to 1 µM |
| Cc1cnn(C)c1-c1cc(N2CCN(C(=O)N3N=CCC3c3cncs3)CC2)c(F)cn1 (stereo not drawn) [Compound 293, (4-(2-(1,4-dimethyl-1H-pyrazol-5-yl)-5-fluoropyridin-4-yl)piperazin-1-yl)(5-(thiazol-5-yl)-4,5-dihydro-1H-pyrazol-1-yl)methanone] | 0.0001 to 0.1 µM |
| Cc1cnn(C)c1-c1cc(N2CCN(C(=O)N3N=CCC3c3nccs3)CC2)c(F)cn1 (stereo not drawn) [Compound 294, (4-(2-(1,4-dimethyl-1H-pyrazol-5-yl)-5-fluoropyridin-4-yl)piperazin-1-yl)(5-(thiazol-2-yl)-4,5-dihydro-1H-pyrazol-1-yl)methanone] | 0.1 to 1 µM |
